From patent publication US9193736B2, “PDE 10a inhibitors for the treatment of type II diabetes” (Janssen Pharmaceutica, NV, priority 2013, dated 2015)
pIC50: −log10 of the molar value. Where a name gives a salt, the structure may show the parent alone.

How the values were obtained:
[1] = biological target: Rat recombinant PDE10a (rPDE10a) (Rattus norvegicus (Rat), UniProt Q9QYJ6); experiment: In vitro assay PDE10a: rat recombinant PDE10a SPA with 3H-cAMP substrate, IC50; assay type: biochemical; settings: 60 nM cAMP, read-out: rPDE10a2 IC50
Rat recombinant PDE10a (rPDE10a), sequence (Q9QYJ6 whole entry): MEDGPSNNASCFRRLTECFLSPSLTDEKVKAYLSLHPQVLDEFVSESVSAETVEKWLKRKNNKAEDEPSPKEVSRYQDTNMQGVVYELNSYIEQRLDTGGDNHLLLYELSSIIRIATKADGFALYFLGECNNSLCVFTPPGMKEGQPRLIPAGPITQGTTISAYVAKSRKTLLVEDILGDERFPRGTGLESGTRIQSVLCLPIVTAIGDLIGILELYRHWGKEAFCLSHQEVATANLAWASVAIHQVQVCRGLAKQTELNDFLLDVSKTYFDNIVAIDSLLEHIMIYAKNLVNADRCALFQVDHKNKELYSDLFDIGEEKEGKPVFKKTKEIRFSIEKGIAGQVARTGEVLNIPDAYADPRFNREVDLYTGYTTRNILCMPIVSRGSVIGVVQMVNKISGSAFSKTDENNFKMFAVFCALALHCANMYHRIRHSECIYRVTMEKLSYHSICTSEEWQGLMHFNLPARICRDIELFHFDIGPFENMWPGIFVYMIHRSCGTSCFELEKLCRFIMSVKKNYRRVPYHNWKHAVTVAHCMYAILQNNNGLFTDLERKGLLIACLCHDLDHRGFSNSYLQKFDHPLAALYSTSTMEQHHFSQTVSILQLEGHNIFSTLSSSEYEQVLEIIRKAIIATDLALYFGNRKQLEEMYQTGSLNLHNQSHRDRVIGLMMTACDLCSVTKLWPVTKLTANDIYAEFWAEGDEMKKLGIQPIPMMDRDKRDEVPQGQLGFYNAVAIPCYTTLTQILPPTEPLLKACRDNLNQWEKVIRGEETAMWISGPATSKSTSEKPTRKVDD
Procedure: In Vitro Assay PDE10a Rat recombinant PDE10a (rPDE10a) was expressed in Sf9 cells using a recombinant rPDE10a baculovirus construct. Cells were harvested after 48 h of infection and the rPDE10a protein was purified by metal chelate chromatography on Ni-sepharose 6FF. Tested compounds were dissolved and diluted in 100% DMSO to a concentration 100 fold of the final concentration in the assay. […] The reaction was incubated for 60 min at rt. After incubation, the reaction was stopped with 20 μL of 17.8 mg/mL PDE SPA beads. […] For blank values the enzyme was omitted from the reaction and replaced by incubation buffer.

[2] = biological target: Human recombinant PDE10A2 (Homo sapiens (Human), UniProt Q9Y233); experiment: In vitro hPDE10a: human recombinant PDE10A2 scintillation proximity assay, IC50; assay type: biochemical; settings: human recombinant PDE10A2, SPA, 60 nM cAMP; read-out: hPDE10a2 IC50
Human recombinant PDE10A2, sequence (Q9Y233 267-1055): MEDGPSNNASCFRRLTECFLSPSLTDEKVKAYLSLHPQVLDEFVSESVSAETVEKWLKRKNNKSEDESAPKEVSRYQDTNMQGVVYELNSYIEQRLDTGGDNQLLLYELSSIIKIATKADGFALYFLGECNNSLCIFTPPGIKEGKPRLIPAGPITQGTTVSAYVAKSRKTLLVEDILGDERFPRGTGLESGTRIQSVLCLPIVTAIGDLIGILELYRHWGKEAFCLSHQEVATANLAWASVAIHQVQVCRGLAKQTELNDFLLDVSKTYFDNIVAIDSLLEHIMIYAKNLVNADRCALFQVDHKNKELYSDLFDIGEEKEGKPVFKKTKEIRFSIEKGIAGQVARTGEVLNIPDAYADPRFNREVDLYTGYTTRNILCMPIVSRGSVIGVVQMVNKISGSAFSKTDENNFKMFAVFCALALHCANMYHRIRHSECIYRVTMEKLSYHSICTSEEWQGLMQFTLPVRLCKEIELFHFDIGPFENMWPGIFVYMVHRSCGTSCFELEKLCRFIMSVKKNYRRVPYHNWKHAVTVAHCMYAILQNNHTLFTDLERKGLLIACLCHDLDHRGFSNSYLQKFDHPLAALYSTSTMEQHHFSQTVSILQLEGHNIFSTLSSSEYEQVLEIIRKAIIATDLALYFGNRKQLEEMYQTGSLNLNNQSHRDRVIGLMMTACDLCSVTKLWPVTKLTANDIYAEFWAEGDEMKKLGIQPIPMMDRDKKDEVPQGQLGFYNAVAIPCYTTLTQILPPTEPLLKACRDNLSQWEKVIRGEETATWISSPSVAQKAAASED
Procedure: Cells were harvested and the phosphodiesterase protein was purified by metal chelate chromatography on Ni-sepharose 6FF. The affinity of the compounds of Formula (I) for phophodiesterases (PDE) was measured by a scintillation proximity assay (SPA). PDE Yttrium Silicate SPA beads allow PDE activity to be measured by direct binding of the primary phosphate groups of non-cyclic AMP or GMP to the beads via a complex iron chelation mechanism. The amount of bound tritiated product ([^3H]-AMP) is measured by liquid scintillation counting. The compounds were dissolved and diluted in 100% DMSO in polystyrene plates to a concentration of 100-fold the final concentration in the assay. […] After incubation, the reaction was stopped with 20 μL of stop solution, consisting of PDE SPA beads (17.8 mg beads/mL in 18 mM zinc sulphate). […] To measure the low control, no enzyme was added to the reaction mixture. Data were calculated as the percentage of inhibition of total activity measured in the absence of test compound (% control). […] For compounds tested more than once, the data points were aggregated.

pIC50 [1] | pIC50 [2] | Compound
> 9.00 | > 9.00 | O=C(O)c1ccc(-c2c(C#Cc3nc4ccccc4[nH]3)nc3c(N4CCOCC4)ccnn23)cc1 [Cpd 108, 4-(2-((1H-Benzo[d]imidazol-2-yl)ethynyl)-8-morpholinoimidazo[1,2-b]pyridazin-3-yl)benzoic acid]
8.70 | 9.00 | O=C(O)c1ccc(Nc2c(/C=C/c3ccc4ccccc4n3)nc3c(N4CCOCC4)ccnn23)c(F)c1 [Cpd 139, (E)-3-Fluoro-4-((8-morpholino-2-(2-(quinolin-2-yl)vinyl)imidazo[1,2-b]pyridazin-3-yl)amino)benzoic acid]
7.64 | 7.24 | CS(=O)(=O)NC(=O)c1cccc2nc(/C=C/c3nc4c(N5CCOCC5)cc(Cl)nn4c3-c3cccnc3)ccc12 [Cpd 141, (E)-2-(2-(6-Chloro-8-morpholino-3-(pyridin-3-yl)imidazo[1,2-b]pyridazin-2-yl)vinyl)-N-(methylsulfonyl)quinoline-5-carboxamide]
6.70 | 6.81 | c1ccc2nc(NCc3nc4c(N5CCOCC5)ccnn4c3-c3ccc(N4CCNCC4)nc3)ccc2c1 [Cpd 4, N-((8-Morpholino-3-(6-(piperazin-1-yl)pyridin-3-yl)imidazo[1,2-b]pyridazin-2-yl)methyl)quinolin-2-amine trifluoroacetic acid salt]
8.70 | 8.52 | O=c1[nH]c(-c2ccc(-c3c(/C=C/c4ccc5ccccc5n4)nc4c(N5CCOCC5)ccnn34)cn2)no1 [Cpd 34, (E)-3-(5-(8-Morpholino-2-(2-(quinolin-2-yl)vinyl)imidazo[1,2-b]pyridazin-3-yl)pyridin-2-yl)-1,2,4-oxadiazol-5(4H)-one]
7.96 | 7.85 | CS(=O)(=O)Nc1ccc(-c2c(/C=C/c3ccc4ccccc4n3)nc3c(N4CCOCC4)ccnn23)cc1 [compound 47, (E)-N-(4-(8-Morpholino-2-(2-(quinolin-2-yl)vinyl)imidazo[1,2-b]pyridazin-3-yl)phenyl)methanesulfonamide]
8.40 | 8.40 | O=C(O)CCC(=O)Nc1ccc(-c2c(CCc3ccc4ccccc4n3)nc3c(N4CCOCC4)ccnn23)cc1 [compound 49, 4-((4-(8-Morpholino-2-(2-(quinolin-2-yl)ethyl)imidazo[1,2-b]pyridazin-3-yl)phenyl)amino)-4-oxobutanoic acid]
> 9.00 | 9.00 | O=C(O)c1cc2ccccc2nc1/C=C/c1cn2nc(Cl)cc(N3CCOCC3)c2n1 [Cpd 143, 2-[(E)-2-(6-Chloro-8-morpholin-4-ylimidazo[1,2-b]pyridazin-2-yl)ethenyl]quinoline-3-carboxylic acid]
9.00 | 8.52 | O=C(O)c1cccc2nc(/C=C/c3nc4c(N5CCOCC5)ccnn4c3-c3cccnc3)ccc12 [Cpd 137, (E)-2-(2-(8-Morpholino-3-(pyridin-3-yl)imidazo[1,2-b]pyridazin-2-yl)vinyl)quinoline-5-carboxylic acid sodium salt]
> 9.00 | > 9.00 | O=C(O)c1cccc(-c2c(C#Cc3ccc4ccccc4n3)nc3c(N4CCOCC4)ccnn23)c1 [Cpd 88, 3-(8-Morpholino-2-(quinolin-2-ylethynyl)imidazo[1,2-b]pyridazin-3-yl)benzoic acid trifluoroacetic acid salt]
6.88 | 6.37 | O=S(=O)(Cc1nc2c(N3CCOCC3)ccnn2c1-c1ccc(N2CCNCC2)nc1)c1ccc2ccccc2n1 [Cpd 9, 4-(3-(6-(piperazin-1-yl)pyridin-3-yl)-2-((quinolin-2-ylsulfonyl)methyl)imidazo[1,2-b]pyridazin-8-yl)morpholine trifluoroacetic acid salt]
7.82 | 7.96 | CS(=O)(=O)NC(=O)CCc1ccc(-c2c(/C=C/c3ccc4ccccc4n3)nc3c(N4CCOCC4)ccnn23)cc1 [Cpd 132, (E)-N-(Methylsulfonyl)-3-(4-(8-morpholino-2-(2-(quinolin-2-yl)vinyl)imidazo[1,2-b]pyridazin-3-yl)phenyl)propanamide trifluoroacetic acid salt]
9.00 | > 9.00 | O=C(NO)c1cccc2nc(/C=C/c3cn4nccc(N5CCOCC5)c4n3)ccc12 [Cpd 118, N-Hydroxy-2-[(E)-2-(8-morpholin-4-ylimidazo[1,2-b]pyridazin-2-yl)ethenyl]quinoline-5-carboxamide]
> 9.00 | > 9.00 | O=C(O)c1ccc(-c2c(C#Cc3ccc4ccccc4n3)nc3c(N4CCOCC4)ccnn23)s1 [Cpd 85, 5-(8-Morpholino-2-(quinolin-2-ylethynyl)imidazo[1,2-b]pyridazin-3-yl)thiophene-2-carboxylic acid]
8.00 | 7.68 | C(=C\c1nc2c(N3CCOCC3)ccnn2c1-c1ccc(N2CCNCC2)nc1)/c1ccc2ccccc2n1 [Cpd 177, (E)-4-(3-(6-(piperazin-1-yl)pyridin-3-yl)-2-(2-(quinolin-2-yl)vinyl)imidazo[1,2-b]pyridazin-8-yl)morpholine trifluoroacetic acid salt]
8.15 | 8.40 | O=C1NC(=O)C(c2ccc(-c3c(CCc4ccc5ccccc5n4)nc4c(N5CCOCC5)ccnn34)cc2)O1 (centres unmarked) [Cpd 70, 5-(4-(8-Morpholino-2-(2-(quinolin-2-yl)ethyl)imidazo[1,2-b]pyridazin-3-yl)phenyl)oxazolidine-2,4-dione]
8.70 | > 9.00 | Oc1c(F)cc(-c2c(/C=C/c3ccc4ccccc4n3)nc3c(N4CCOCC4)ccnn23)cc1F [compound 80, (E)-2,6-Difluoro-4-(8-morpholino-2-(2-(quinolin-2-yl)vinyl)imidazo[1,2-b]pyridazin-3-yl)phenol]
9.00 | 8.52 | O=C(O)CCNC(=O)c1ccc(-c2c(CCc3ccc4ccccc4n3)nc3c(N4CCOCC4)ccnn23)cc1 [compound 46, 3-(4-(8-Morpholino-2-(2-(quinolin-2-yl)ethyl)imidazo[1,2-b]pyridazin-3-yl)benzamido)propanoic acid]
9.00 | 9.00 | O=C(O)c1ccc(-c2c(/C=C/c3ccc4ccccc4n3)nc3c(N4CCOCC4)ccnn23)s1 [Cpd 57, (E)-5-(8-Morpholino-2-(2-(quinolin-2-yl)vinyl)imidazo[1,2-b]pyridazin-3-yl)thiophene-2-carboxylic acid]
> 9.00 | > 9.00 | C(#Cc1cn2nccc(N3CCOCC3)c2n1)c1ccc2ccccc2n1 [Cpd 84, 2-[(8-Morpholin-4-ylimidazo[1,2-b]pyridazin-2-yl)ethynyl]quinoline]
8.40 | 8.22 | COc1cc(-c2c(CCc3ccc4ccccc4n3)nc3c(N4CCOCC4)ccnn23)ccc1C(=O)O [compound 69, 2-Methoxy-4-(8-morpholino-2-(2-(quinolin-2-yl)ethyl)imidazo[1,2-b]pyridazin-3-yl)benzoic acid]
7.92 | 8.00 | CC(C)[C@H](Nc1ccc(-c2c(/C=C/c3ccc4ccccc4n3)nc3c(N4CCOCC4)ccnn23)cc1)C(=O)O [Cpd 99, (S,E)-3-Methyl-2-(4-(8-morpholino-2-(2-(quinolin-2-yl)vinyl)imidazo[1,2-b]pyridazin-3-yl)phenylamino)butanoic acid trifluoroacetic acid salt]
8.40 | 8.70 | O=C(O)c1ccc(-c2c(/C=C/c3ccc4ccccc4n3)nc3c(N4CCOCC4)ccnn23)o1 [Cpd 58]
9.00 | 9.00 | O=C(O)c1cccc2nc(/C=C/c3cn4nccc(N5CCOCC5)c4n3)ccc12 [Cpd 115, 2-[(E)-2-(8-Morpholin-4-ylimidazo[1,2-b]pyridazin-2-yl)ethenyl]quinoline-5-carboxylic acid]
> 9.00 | > 9.00 | O=C(O)c1ccc(-c2c(C#Cc3ccc4ccccc4n3)nc3c(N4CCOCC4)ccnn23)cc1 [Cpd 77, 4-(8-Morpholino-2-(quinolin-2-ylethynyl)imidazo[1,2-b]pyridazin-3-yl)benzoic acid]

Compound | pIC50 [1] | pIC50 [2]
c1cncc(-c2c(COc3ccc4ccccc4n3)nc3c(N4CCOCC4)ccnn23)c1 [Cpd 2, 4-(3-(pyridin-3-yl)-2-((quinolin-2-yloxy)methyl)imidazo[1,2-b]pyridazin-8-yl)morpholine] | 6.85 | 6.61
c1ccc2nc(SCc3nc4c(N5CCOCC5)ccnn4c3-c3ccc(-c4nnn[nH]4)nc3)ccc2c1 [Cpd 32, 4-(3-(6-(1H-Tetrazol-5-yl)pyridin-3-yl)-2-((quinolin-2-ylthio)methyl)imidazo[1,2-b]pyridazin-8-yl)morpholine trifluoroacetic acid salt] | 9.00 | 8.70
Cc1ccc(-c2c(COc3ccc4ccccc4n3)nc3c(N4CCOCC4)ccnn23)cn1 [Cpd 1, 4-(3-(6-methylpyridin-3-yl)-2-((quinolin-2-yloxy)methyl)imidazo[1,2-b]pyridazin-8-yl)morpholine methane sulfonic acid] | 7.34 | 6.94
